Publication PMC11359809, “Probing the molecular basis for signal transduction through the Zinc-Activated Channel (ZAC)” (Biochemical pharmacology, 2021)
Residue numbers refer to the chain shown, from its start. “And” between values parts separate entries of the source, which are not always exact repeats. Equal values may be shown once.

Experiments:
ZAC/m5-HT3A = assay: TEVC in oocytes expressing ZAC/m5-HT3A chimera; type: cell-based, mouse/human; conditions: 10 mM Zn^2+; n = 5
Experimental: (§1) The recordings were performed at room temperature.
(§2) Analysis of the data from the TEVC recordings were performed using Clampfit software version 10.5 (Molecular Devices, Crawley, UK) and GraphPad Prism version 7.0c (GraphPad Software, La Jolla, CA). Unless otherwise stated, the inward currents induced by agonists in oocytes were normalized to the maximal response elicited by a specific agonist (agonist Imax) on each oocyte. Concentration-response and concentration-inhibition curves were fitted in GraphPad Prism by nonlinear regression using the equation for sigmoidal dose-response with variable slope. Each data point represents the mean ± S.E.M. value of recordings performed on at least five oocytes in total from at least two different batches. For the data where statistical analysis was performed, a one-way ANOVA was used. The null hypothesis was rejected at P < 0.05, and the differences between the means were analyzed by Tukey’s multiple comparisons test.
Initially, we constructed four chimeric subunits fusing the ZAC ECD or TMD-ICD with the complementary domains from either the m5-HT3A or the hα1 GlyR subunit: ZAC/m5-HT3A, m5-HT3A/ZAC, ZAC/hα1-Gly and hα1-Gly/ZAC (Fig. 1A). […] (Fig. 1A).

WT ZAC = molecular target: T1, WT ZAC (Homo sapiens, UniProt Q401N2, A152T); assay: TEVC in Xenopus oocytes expressing WT ZAC; type: cell-based
T1 construct: expressed in transfected cells; host or cells: Xenopus oocytes injected with cRNA (pUNIV vector)
T1 sequence (Q401N2 26-412 A152T): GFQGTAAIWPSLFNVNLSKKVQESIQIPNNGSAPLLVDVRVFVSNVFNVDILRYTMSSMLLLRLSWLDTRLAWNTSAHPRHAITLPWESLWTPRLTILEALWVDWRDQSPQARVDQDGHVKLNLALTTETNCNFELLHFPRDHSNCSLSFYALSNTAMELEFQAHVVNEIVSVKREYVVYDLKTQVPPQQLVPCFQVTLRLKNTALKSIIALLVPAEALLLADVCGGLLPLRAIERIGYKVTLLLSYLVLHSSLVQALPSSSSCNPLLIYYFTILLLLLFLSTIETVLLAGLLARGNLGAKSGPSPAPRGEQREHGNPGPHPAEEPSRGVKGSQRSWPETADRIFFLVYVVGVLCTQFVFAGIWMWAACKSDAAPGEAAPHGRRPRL
Experimental: as §1, §2

ZAC^L9′V = molecular target: T2, ZAC^L9′V (Homo sapiens, UniProt Q401N2, A152T/L270V); assay: TEVC in oocytes, ZAC L9′V mutant; type: cell-based; conditions: agonist; n = 8
T2 construct: expressed in transfected cells; host or cells: Xenopus oocytes (cRNA injection, pUNIV vector)
T2 sequence (Q401N2 26-412 A152T/L270V): T1 sequence (Q401N2 26-412 A152T) with L245V
Experimental: as §1, §2

[1] = system: ZAC^L9′V, ZAC^L9′I and ZAC^L9′T; assay: TEVC in oocytes, L9′V, L9′I and L9′T mutants (collective statement); type: cell-based, human; conditions: compared to WT ZAC; range over the three mutants
Experimental: as §1, §2

[2] = agonist, oocytes of the Cluster 3 recordings, n = 12
[3] = agonist, parallel recordings with Cluster 4 mutant, n = 5
[4] = agonist, section 3.1 recordings, n = 8
[5] = sustained (4 min) application of 10 mM Zn^2+

[Cl-].[Cl-].[Zn+2] [Zn^2+, ZnCl2]
I10 mM Zn2+ ± S.E.M. (ZAC/m5-HT3A): −0.0038 ± 0.0009 μA | Imax (current amplitude evoked by saturating agonist) (WT ZAC; 10 mM Zn^2+, mean ± S.E.M., n = 19): 0.58 ± 0.10 μA | EC50 (WT ZAC; agonist, a couple of oocyte batches with 5–10-fold higher potency (Cluster 1 double/triple mutant experiments)): ~100 µM | nH ± S.E.M. (Hill slope) (WT ZAC; agonist, n = 8): 1.5 ± 0.2 | EC50 (WT ZAC; agonist, normal potency in the vast majority of oocyte batches in this work and in two other studies): 500 to 1000 µM | EC50 (WT ZAC; [2]): 98 µM | pEC50 ± S.E.M. (WT ZAC; [2]): 4.01 ± 0.03 | EC50 (WT ZAC; [3]): 310 µM | pEC50 ± S.E.M. (WT ZAC; [3]): 3.51 ± 0.05 | EC50 (WT ZAC; [4]): 500 µM | pEC50 ± S.E.M. (WT ZAC; [4]): 3.30 ± 0.04 | Iresidual, 4 min (WT ZAC; [5]): 21 % of Ipeak and 21 ± 3 % of Ipeak | Δtstart-to-peak (WT ZAC; [5]): 4.8 ± 0.5 s | EC50 (ZAC^L9′V): 13 µM | nH ± S.E.M. (Hill slope) (ZAC^L9′V): 0.7 ± 0.3 | pEC50 ± S.E.M. (ZAC^L9′V): 4.88 ± 0.22 | left-shift of Zn^2+ concentration-response relationship [1]: 8–30 fold
